{"source": "patent US20240174622A1", "about": "“COMPOUND AND RADIOACTIVE LABELING COMPOUND” (NIHON MEDI-PHYSICS CO., LTD., priority 2021, published 2024)", "key": {"[1]": {"system": "PC-3 cells (PSMA-negative, human prostate cancer)", "assay": "Binding assay using cultured cells (PC-3)", "type": "cell-based", "settings": "37° C., 1 hour", "method": "LNCaP cells (PSMA-positive, human prostate cancer) and PC-3 cells (PSMA-negative, human prostate cancer) were used. These cells were purchased from American Type Culture Collection and DS Biomedical, respectively. Each of the cells were cultured in RPMI 1640, which is manufactured by NACALAI TESQUE, INC. and contains antibiotics (penicillin and streptomycin) and 10% inactivated fetal bovine serum, at 37° C. under 5% CO2.\nThe LNCaP cells and PC-3 cells were each seeded on a 12 well plate at 4.0×10^5 cells/well, and left standing at 37° C. under 5% CO2 for 48 hours.\nThe culture medium was removed, and an assay medium (0.5% FBS-containing RPMI 1640 medium) solution (1 mL) containing [^111In]In-PSMA-DA1 or [^111In]In-PSMA-DB (37 kBq) was added. Thereafter, the plate was allowed to stand at 37° C. under 5% CO2 for 1 hour. […]\nThe radioactivity for each of the assay medium and the cell lysate was measured with a gamma counter. Separately, the total protein concentration in the cell lysate was calculated using BCA Protein Assay Kit, which is manufactured by Thermo Fisher Scientific K.K. The value (% ID/mg protein) obtained by dividing the percentage (% ID) of the sample's radioactivity amount to the added radioactivity amount by the total protein amount was calculated for each sample. […]"}, "[2]": {"assay": "Evaluation of stability in plasma", "type": "in vitro ADME", "settings": "37° C., 24 hours", "method": "A saline (20 μL) solution of [^111In]In-PSMA-DA1 (370 kBq) or [^90Y]Y-PSMA-DA1 (3.7 MBq) was added to mouse plasma (200 μL), and the mixture was allowed to stand at 37° C. for 24 hours (n=3). Then, MeCN (200 μL) was added, and the mixture was centrifuged at 10,000×g for 5 minutes. The supernatant was filtered, and the filtrate was analyzed by reverse phase HPLC under the following conditions.\n(Analytical conditions: Cosmosil 5C18-PAQ column (4.6×250 mm); mobile phase: MeCN/H2O/TFA [20/80/0.1 (0 min) to 50/50/0.1 (30 min)]; flow rate: 1 mL/min.)\nA saline (20 μL) solution of [^111In]In-PtDA (259 kBq) was added to mouse plasma (200 μL), and the mixture was allowed to stand at 37° C. for 24 hours (n=3). MeCN (400 μL) was added thereto, and the mixture was centrifuged at 10,000×g for 5 minutes. The supernatant was filtered, and the filtrate was analyzed by reverse phase HPLC under the following conditions.\nAnalytical conditions: Cosmosil 5C18-AR-II column (4.6×150 mm); mobile phase: MeCN/H2O/TFA [10/90/0.1 (0 min) to 70/30/0.1 (30 min)]; flow rate: 1 mL/min."}}, "data": [{"smiles": "O=C([O-])CN1CCN(C(CCC(=O)NCCC(=O)N2Cc3ccccc3-c3c(nnn3CCOCCOCCOCCOCCC(=O)NCCCC[C@H](NC(=O)N[C@@H](CCC(=O)O)C(=O)O)C(=O)O)-c3ccccc32)C(=O)[O-])CCN(CC(=O)[O-])CCN(C(CCC(=O)N[C@@H](CCCCNC(=O)CCCc2ccc(I)cc2)C(=O)O)C(=O)[O-])CC1.[111In+3]", "note": "(some centres unmarked) [[^111In]In-PtDA]", "values": [{"measurement": "binding to PC-3 cells", "setting": "[1]", "result": 0.15, "unit": "% ID/mg protein"}, {"measurement": "stably present in mouse plasma", "setting": "[2]", "result": "≥ 95", "unit": "%"}]}]}
